From US7754852B2, “Natriuretic polypeptides” (Mayo Foundation for Medical Education and Research, priority 2007, dated 2010)
Where a SMILES comes first, the peptide text is derived from it. Bridges are numbered along the chain shown (N, C = ends). Where no end group is shown, it is not given here.

Assays:
normal anesthetized dogs [1] = experiment: Cardiorenal function in normal anesthetized dogs, consecutive i.v. infusions of 10, 50 and 100 ng/kg/minute; type: in vivo, dog
Method: Cardiorenal function was assessed in three normal anesthetized dogs. […] Tubular Na^+ reabsorption and GFR were assessed by clearance of Li^+ and inulin, respectively. Neurohormones were quantified by radioimmunoassays. Data were analyzed by repeated measures ANOVA followed by Dunnett's test.

normal anesthetized dogs [2] = experiment: Hemoconcentrating effects (hematocrit) of i.v. infusion at 14 pmol/kg/minute in normal anesthetized dogs; type: in vivo, dog
Method: Three human NPs (BNP, CNP, URO, and CU-NP were studied to evaluate their effects on vascular permeability as manifested by an increase in hematocrit. Normal anesthetized dogs received i.v. infusions of BNP (n=7), CNP (n=6), URO (n=5), or CU-NP (n=6) at 14 pmol/kg/minute. Blood was collected in EDTA tubes on ice and centrifuged. Data are reported for base-line and at 60 minutes of infusion. In addition to increasing hematocrit (Table 5), CU-NP reduced PCW pressure in vivo (baseline 6±0.9 mmHg, 60 minutes 3±0.9 mmHg; P<0.05). Thus, hemoconcentrating effects of CU-NP may contribute to its cardiac-unloading actions in vivo.

[3] = tested on: isolated canine glomeruli; experiment: cGMP stimulation in isolated canine glomeruli; type: cell-based; details: 10^−5 M
Method: Experiments were conducted to determine whether CU-NP directly stimulates cGMP in isolated glomeruli, and to compare the cGMP-activating actions of CU-NP with CNP, URO, and CNP-C, which consisted of the full-length 22-AA of CNP with a duplicate of the N-terminus fused in the C-terminal position. Glomeruli were isolated upon harvest of normal canine kidneys. CU-NP, CNP, URO, and CNP-C (10^−5 M) were incubated with glomeruli vs. control. Cyclic GMP was measured by RIA, with correction for protein levels. CU-NP and URO elicited greater cGMP responses than respective controls (P<0.01), but without difference between groups. CU-NP and URO stimulated greater cGMP responses vs. CNP and vs. CNP-C (P<0.001).

normal anesthetized dogs [4] = experiment: Renal, cardiovascular and neurohumoral effects of i.v. infusion at 50 ng/kg/minute for 75 minutes in normal anesthetized dogs; type: in vivo, dog
Method: CU-NP or CNP polypeptide was intravenously infused into normal anesthetized dogs at 50 ng/kg/minute for 75 minutes. Blood and urine samples were collected pre-infusion (pre-I), at 30 and 60 minutes of infusion, and post-infusion (post-I). Inulin clearance was used for assessment of glomerular filtration rate (GFR). The lithium clearance technique was used for measurement of proximal and distal fractional reabsorption of Na^+ (PFRNa and DFRNa, respectively). Comparisons at the latter three time points versus pre-I were made. Student's t-test was used when comparing results for two time points, whereas repeated measures ANOVA was used to compare four time points.

[5] = tested on: human aortic endothelial cells (HAEC); experiment: cGMP response in HAEC in the absence or presence of NPR-B antibody; type: cell-based; details: 10^−6 M, 10 minutes
Method: (§1) cGMP responses to the 3 peptides also were assessed in glomeruli isolated from canine kidneys upon harvest, in the presence or absence of an NPR-A antagonist, […] (1 μM), or an NPR-B antagonist, […] (1 μM), or both antagonists added sequentially (A71915 followed by […], 1 μM final concentration for both). To confirm the involvement of NPR-B in the cGMP response to CU-NP, additional experiments were conducted using human aortic endothelial cells (HAEC). Cyclic GMP response was determined by incubating CU-NP (10^-6 M) for 10 minutes in the absence or presence of an antibody to the ligand-binding domain of NPR-B. In vitro data (mean±SEM) were analyzed by one-way ANOVA followed by Bonferroni's post-test. Statistical significance was defined as P<0.05. GraphPad Prism 4 (GraphPad Software, San Diego, Calif.) was used for statistical analyses.

normal anesthetized dogs [6] = experiment: In vivo renal perfusion pressure, i.v. infusion at 14.14 pmol/kg/minute for 75 minutes; set-up: species or system dog; details: RPP estimated by MAP−RAP
Method: Studies were conducted to determine the in vivo actions of CNP, CU-NP and URO on renal perfusion pressure (RPP, as estimated by MAP-RAP), as RPP is a key determinant of renal function. Given the GFR-enhancing action of CU-NP, in vitro studies also were done to test the hypothesis that CU-NP (unlike CNP) also activates NPR-A, a potent renal acting NP receptor. Equimolar doses of CU-NP, human CNP, or human URO were intravenously infused at 14.14 pmol/kg/minute into 17 normal anesthetized dogs for 75 minutes. RPP was assessed at baseline and at 60 minutes of infusion. Data are expressed as mean±SEM. Clearances were measured from the 16th to the 45th minute and from the 46th to the 75th minute following initiation of peptide infusion. Within each group, 2-tailed paired t-test was used to compare RPP at 60 minutes of peptide infusion vs. baseline. Comparisons between groups were made by two-way ANOVA followed by Bonferroni post-test.

[7] = tested on: isolated canine glomeruli; experiment: cGMP response in isolated canine glomeruli with or without NPR-A antagonist and NPR-B antagonist; type: cell-based; details: 10^−5 M, no antagonist
Method: as §1

[8] = 60 min of i.v. infusion at 14 pmol/kg/minute
[9] = 30 minutes of infusion, 50 ng/kg/minute i.v.
[10] = 60 minutes of infusion, 50 ng/kg/minute i.v.
[11] = 60 minutes of i.v. infusion at 14.14 pmol/kg/minute

`CC[C@H](C)[C@@H]1NC(=O)[C@H](CCCNC(=N)N)NC(=O)[C@H](CC(=O)O)NC(=O)[C@H](CC(C)C)NC(=O)[C@H](CCCCN)NC(=O)[C@H](CC(C)C)NC(=O)CNC(=O)[C@H](Cc2ccccc2)NC(=O)[C@@H](NC(=O)[C@H](CO)NC(=O)[C@H](CO)NC(=O)[C@H](CCCNC(=N)N)NC(=O)[C@H](CCCNC(=N)N)NC(=O)[C@H](CC(C)C)NC(=O)[C@H](CO)NC(=O)[C@H](CCCNC(=N)N)NC(=O)[C@@H]2CCCN2C(=O)[C@H](C)NC(=O)[C@@H](N)[C@@H](C)O)CSSC[C@@H](C(=O)N[C@@H](CC(N)=O)C(=O)N[C@@H](CO)C(=O)N[C@@H](Cc2ccccc2)C(=O)N[C@@H](CCCNC(=N)N)C(=O)N[C@@H](Cc2ccc(O)cc2)C(=O)O)NC(=O)CNC(=O)[C@H](CC(C)C)NC(=O)CNC(=O)[C@H](CO)NC(=O)[C@H](CCSC)NC(=O)[C@H](CO)NC(=O)CNC1=O` [CU-NP] (H-TAPRSLRRSSCFGLKLDRIGSMSGLGCNSFRY-OH; disulfide 11-27) gave a QTc interval (normal anesthetized dogs [1]; end of infusion at 100 ng/kg/minute) of 329 ± 15 ms and a QTc interval (normal anesthetized dogs [1]; pre-infusion) of 323 ± 6 ms.
BNP: human NP (natriuretic peptide) BNP was tested, and the “Hematocrit (mean ± SEM)” value (normal anesthetized dogs [2]; [8]) was 40 ± 2 % and the “Hematocrit (mean ± SEM)” value (normal anesthetized dogs [2]; Baseline) was 36 ± 1%.
With “CNP: human CNP, mature natriuretic polypeptide of 22 amino acids” the “cGMP (mean ± SEM)” value [3] was 0.0019 ± 0.0005 fmol/µg, the “Hematocrit (mean ± SEM)” value (normal anesthetized dogs [2]; [8]) was 37 ± 1% and the “Hematocrit (mean ± SEM)” value (normal anesthetized dogs [2]; Baseline) was 36 ± 1%. For the same molecule, the “DFRNa+” value (normal anesthetized dogs [4]; [9]) was 98 ± 0.8%, the GFR (normal anesthetized dogs [4]; [9]) was 42 ± 4 mL/min and the “Na^+ excretion” value (normal anesthetized dogs [4]; [9]) was 56 ± 21 μEq/min. For the same molecule, the “PFRNa+” value (normal anesthetized dogs [4]; [9]) was 67 ± 3%, the “Plasma cGMP” value (normal anesthetized dogs [4]; [9]) was 11 ± 1 pmol/mL and the “Renal generation of cGMP” value (normal anesthetized dogs [4]; [9]) was 452 ± 202 pmol/min. The “Urinary cGMP excretion” value (normal anesthetized dogs [4]; [9]) was 1119 ± 102 pmol/min, the Urine flow (normal anesthetized dogs [4]; [9]) was 0.3 ± 0.06 mL/min and the “DFRNa+” value (normal anesthetized dogs [4]; [10]) was 98 ± 0.5%. The GFR (normal anesthetized dogs [4]; [10]) was 39 ± 3 mL/min, the “Na^+ excretion” value (normal anesthetized dogs [4]; [10]) was 71 ± 8 μEq/min and the “PFRNa+” value (normal anesthetized dogs [4]; [10]) was 51 ± 7 %. For the same molecule, the “Plasma cGMP” value (normal anesthetized dogs [4]; [10]) was 12 ± 1 pmol/mL, the “Renal generation of cGMP” value (normal anesthetized dogs [4]; [10]) was 603 ± 199 pmol/min and the “Urinary cGMP excretion” value (normal anesthetized dogs [4]; [10]) was 1338 ± 81 pmol/min. For the same molecule, the Urine flow (normal anesthetized dogs [4]; [10]) was 0.4 ± 0.02 mL/min, the “DFRNa+” value (normal anesthetized dogs [4]; post-infusion) was 99 ± 0.2% and the GFR (normal anesthetized dogs [4]; post-infusion) was 44 ± 3 mL/min. For the same molecule, the “Na^+ excretion” value (normal anesthetized dogs [4]; post-infusion) was 30 ± 8 μEq/min, the “PFRNa+” value (normal anesthetized dogs [4]; post-infusion) was 68 ± 3 % and the “Plasma cGMP” value (normal anesthetized dogs [4]; post-infusion) was 12 ± 1 pmol/mL. For the same molecule, the “Renal generation of cGMP” value (normal anesthetized dogs [4]; post-infusion) was 582 ± 91 pmol/min, the “Urinary cGMP excretion” value (normal anesthetized dogs [4]; post-infusion) was 1090 ± 76 pmol/min and the Urine flow (normal anesthetized dogs [4]; post-infusion) was 0.3 ± 0.04 mL/min. The “DFRNa+” value (normal anesthetized dogs [4]; pre-infusion) was 99 ± 0.5%, the GFR (normal anesthetized dogs [4]; pre-infusion) was 38 ± 4 mL/min and the “Na^+ excretion” value (normal anesthetized dogs [4]; pre-infusion) was 16 ± 6 μEq/min. For the same molecule, the “PFRNa+” value (normal anesthetized dogs [4]; pre-infusion) was 83 ± 3%, the “Plasma cGMP” value (normal anesthetized dogs [4]; pre-infusion) was 8 ± 1 pmol/mL and the “Renal generation of cGMP” value (normal anesthetized dogs [4]; pre-infusion) was 491 ± 65 pmol/min. For the same molecule, the “Urinary cGMP excretion” value (normal anesthetized dogs [4]; pre-infusion) was 830 ± 74 pmol/min, the Urine flow (normal anesthetized dogs [4]; pre-infusion) was 0.1 ± 0.02 mL/min and the cGMP ([5]; in the presence of the NPR-B antibody (1:100)) was 0.08 ± 0.01 pmol/mL. For the same molecule, the cGMP ([5]; no antibody) was 0.17 ± 0.04 pmol/mL, the “RPP (mean ± SEM)” value (normal anesthetized dogs [6]; [11]) was 123 ± 8 mmHg and the “RPP (mean ± SEM)” value (normal anesthetized dogs [6]; Pre-I) was 120 ± 4 mmHg.
With “URO: human urodilatin, natriuretic polypeptide (TAPRSLRRSSCFGGRMDRIGAQSGLGCNSFRY; ends and bridges not checked; cysteine pairing not given here; UniProt P01160 120-151, looked up)” the “cGMP (mean ± SEM)” value [3] was 0.69 ± 0.07 fmol/µg, the “Hematocrit (mean ± SEM)” value (normal anesthetized dogs [2]; [8]) was 40 ± 1 % and the “Hematocrit (mean ± SEM)” value (normal anesthetized dogs [2]; Baseline) was 37 ± 1%. The cGMP [7] was 0.54 ± 0.10 fmol/µg, the “RPP (mean ± SEM)” value (normal anesthetized dogs [6]; [11]) was 119 ± 4 mmHg and the “RPP (mean ± SEM)” value (normal anesthetized dogs [6]; Pre-I) was 127 ± 4 mmHg.
